# Test results from US9364467B2 (Salix Pharmaceuticals, Ltd, priority 2012, dated 2016).
# Like-named read-outs stand apart in the source and are kept apart here.
# What was measured:
# Bombesin BB1 = Bombesin BB1 (Homo sapiens, UniProt P28336); assay: Radioligand binding assay, Bombesin BB1; settings: CONC. 10 μM, hum
# Protocol: Methods employed in this study have been adapted from the scientific literature to maximize reliability and reproducibility. Reference standards were run as an integral part of each assay to ensure the validity of the results obtained. Assays were performed under conditions described in the accompanying “Methods” section below. The literature reference(s) for each assay are in the “Literature References” section.
# Where presented, IC50 values were determined by a non-linear, least squares regression analysis using MathIQ™ (ID Business Solutions Ltd., UK). Where inhibition constants (KI) are presented, the KI values were calculated using the equation of Cheng and Prusoff (Cheng, Y., Prusoff, W. H., Biochem. Pharmacol. 22:3099-3108, 1973) using the observed IC50 of the tested compound, the concentration of radioligand employed in the assay, and the historical values for the KD of the ligand (obtained experimentally at Ricerca Biosciences, LLC). Where presented, the Hill coefficient (nH), defining the slope of the competitive binding curve, was calculated using MathIQ™. […] Where IC50, KI, and/or nH data are presented without Standard Error of the Mean (SEM), data are insufficient to be quantitative, and the values presented (KI, IC50, nH) should be interpreted with caution. […]
# S. aureus = assay: In vitro activity (MIC) against S. aureus strains; settings: Staphylococcus aureus
# S. xylosus = assay: In vitro activity (MIC) against S. xylosus strains
# [1] = tested on: Enterococcus spp. strains; assay: In vitro activity (MIC) against Enterococcus spp. strains
# [2] = Screen at 10 μM against 168 targets; format: binding
# [3] = Enterococcus, read-out: Mode (MIC), Enterococcus spp. strains
# Sequence of Bombesin BB1 (P28336 whole entry): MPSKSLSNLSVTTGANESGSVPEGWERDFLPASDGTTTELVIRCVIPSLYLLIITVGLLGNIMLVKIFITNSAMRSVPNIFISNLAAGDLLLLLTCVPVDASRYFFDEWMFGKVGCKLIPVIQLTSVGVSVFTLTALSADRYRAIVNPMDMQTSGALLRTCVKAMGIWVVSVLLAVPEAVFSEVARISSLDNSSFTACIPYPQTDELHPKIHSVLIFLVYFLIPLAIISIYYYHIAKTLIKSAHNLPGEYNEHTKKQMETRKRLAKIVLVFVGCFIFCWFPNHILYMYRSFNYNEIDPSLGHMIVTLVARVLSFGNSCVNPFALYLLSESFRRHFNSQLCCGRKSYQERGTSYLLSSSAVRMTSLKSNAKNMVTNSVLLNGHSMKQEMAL
structure (smiles),measurement,setting,value
"CO[C@H]1/C=C/O[C@@]2(C)Oc3c(C)c(O)c4c(O)c(c5c(nc6cc(C)ccn65)c4c3C2=O)NC(=O)/C(C)=C\C=C\[C@H](C)[C@H](O)[C@@H](C)[C@@H](O)[C@@H](C)[C@H](OC(C)=O)[C@@H]1C [Rifaximin, reference compound]",inhibition at 10 µM,Bombesin BB1,< 50%
same,MIC,S. aureus; strain ATCC S. aureus 29213,0.015 µg/mL
same,MIC,S. aureus; strain S. aureus 215,1 µg/mL
same,MIC,S. aureus; strain S. aureus 234,0.25 µg/mL
same,MIC,S. aureus; strain S. aureus 236,1 µg/mL
same,MIC,S. aureus; strain S. aureus 237,0.06 µg/mL
same,MIC,S. aureus; strain S. aureus 238,0.03 µg/mL
same,MIC,S. aureus; strain S. aureus 246,0.5 µg/mL
same,MIC,S. aureus; strain S. aureus 252,0.5 µg/mL
same,MIC,S. aureus; strain S. aureus 253,0.12 µg/mL
same,MIC,S. aureus; strain S. aureus 267,1 µg/mL
same,MIC,S. aureus; strain S. aureus 272,0.25 µg/mL
same,MIC,S. aureus; strain S. aureus 279,0.03 µg/mL
same,MIC,S. aureus; strain S. aureus 327,1 µg/mL
same,MIC,S. aureus; strain S. aureus 328,0.5 µg/mL
same,MIC,S. aureus; strain S. aureus 329,1 µg/mL
same,MIC,S. aureus; strain S. aureus 339,1 µg/mL
same,MIC,S. aureus; strain S. aureus 345,0.25 µg/mL
same,MIC,S. aureus; strain S. aureus 355,0.5 µg/mL
same,MIC,S. aureus; strain S. aureus 406,0.5 µg/mL
same,MIC,S. aureus; strain S. aureus 408,0.25 µg/mL
same,MIC,S. aureus; strain S. aureus 409,0.12 µg/mL
same,MIC,S. aureus; strain S. aureus 416,0.5 µg/mL
same,MIC,S. aureus; strain S. aureus 425,0.5 µg/mL
same,MIC,S. aureus; strain S. aureus 436,0.06 µg/mL
same,MIC,S. aureus; strain S. aureus 475,0.5 µg/mL
same,MIC,S. xylosus; Staphylococcus xylosus,0.5 µg/mL
same,MIC,S. xylosus; strain S. xylosus 346,0.5 µg/mL
same,MIC,[1]; ATCC E. faecalis 29212,4 µg/mL
same,MIC,[1]; E. faecalis 181,4 µg/mL
same,MIC,[1]; E. faecalis 186,4 µg/mL
same,MIC,[1]; E. faecalis 187,4 µg/mL
same,MIC,[1]; E. faecalis 193,4 µg/mL
same,MIC,[1]; E. faecalis 194,4 µg/mL
same,MIC,[1]; E. faecalis 200,> 16 µg/mL
same,MIC,[1]; E. faecalis 204,4 µg/mL
same,MIC,[1]; E. faecalis 205,4 µg/mL
same,MIC,[1]; E. faecalis 210,4 µg/mL
same,MIC,[1]; E. faecalis 227,> 16 µg/mL
same,MIC,[1]; E. faecalis 228,4 µg/mL
same,MIC,[1]; E. faecalis 232,4 µg/mL
same,MIC,[1]; E. faecalis 235,16 µg/mL
same,MIC,[1]; E. faecalis 237,4 µg/mL
same,MIC,[1]; E. faecalis 239,8 µg/mL
same,MIC,[1]; E. faecalis 242,> 16 µg/mL
same,MIC,[1]; E. faecalis 243,16 µg/mL
same,MIC,[1]; E. faecalis 245,> 16 µg/mL
same,MIC,[1]; E. faecalis 249,4 µg/mL
same,MIC,[1]; E. faecalis 250,4 µg/mL
same,MIC,[1]; E. faecalis 251,8 µg/mL
same,MIC,[1]; E. faecalis 255,4 µg/mL
same,MIC,[1]; E. faecium 8,4 µg/mL
same,MIC,[1]; E. faecium 13,4 µg/mL
same,MIC,[1]; E. faecium 174,8 µg/mL
same,MIC,[1]; E. faecium 185,> 16 µg/mL
same,MIC,[1]; E. faecium 188,8 µg/mL
same,MIC,[1]; E. faecium 189,4 µg/mL
same,MIC,[1]; E. faecium 190,16 µg/mL
same,MIC,[1]; E. faecium 191,> 16 µg/mL
same,MIC,[1]; E. faecium 192,2 µg/mL
same,MIC,[1]; E. faecium 198,16 µg/mL
same,MIC,[1]; E. faecium 199,8 µg/mL
same,MIC,[1]; E. faecium 201,16 µg/mL
same,MIC,[1]; E. faecium 203,4 µg/mL
same,MIC,[1]; E. faecium 207,4 µg/mL
same,MIC,[1]; E. faecium 208,2 µg/mL
same,MIC,[1]; E. faecium 209,16 µg/mL
same,MIC,[1]; E. faecium 212,> 16 µg/mL
same,MIC,[1]; E. faecium 215,> 16 µg/mL
same,MIC,[1]; E. faecium 217,8 µg/mL
same,MIC,[1]; E. faecium 221,8 µg/mL
same,MIC,[1]; E. faecium 222,> 16 µg/mL
same,MIC,[1]; E. faecium 223,> 16 µg/mL
same,MIC,[1]; E. faecium 225,4 µg/mL
same,MIC,[1]; E. faecium 229,2 µg/mL
same,MIC,[1]; E. faecium 230,8 µg/mL
same,MIC,[1]; E. faecium 231,16 µg/mL
same,MIC,[1]; E. faecium 236,2 µg/mL
same,MIC,[1]; E. faecium 238,16 µg/mL
same,MIC,[1]; E. faecium 240,> 16 µg/mL
same,MIC,[1]; E. faecium 248,> 16 µg/mL
same,MIC50,[1]; Enterococcus,8 µg/mL
same,MIC90,[1]; Enterococcus,> 16 µg/mL
same,MIC,[1]; [3],4 µg/mL
COC1/C=C/O[C@@]2(C)Oc3c(C)c(O)c4c(O)c(c5c(c4c3C2=O)NC2C=C(C)C=CN52)NC(=O)/C(C)=C\C=C\C(C)C(O)C(C)C(O)C(C)C(O)C1C (stereo partly shown) [25-desacetyl rifaximin],inhibition at 10 µM,Bombesin BB1,> 50%
same,"hits (50% effect, either inhibition or stimulation) in screen against 168 targets",[2],two “hits”
same,MIC,S. aureus; strain ATCC S. aureus 29213,0.5 µg/mL
same,MIC,S. aureus; strain S. aureus 215,16 µg/mL
same,MIC,S. aureus; strain S. aureus 234,2 µg/mL
same,MIC,S. aureus; strain S. aureus 236,16 µg/mL
same,MIC,S. aureus; strain S. aureus 237,2 µg/mL
same,MIC,S. aureus; strain S. aureus 238,0.25 µg/mL
same,MIC,S. aureus; strain S. aureus 246,2 µg/mL
same,MIC,S. aureus; strain S. aureus 252,4 µg/mL
same,MIC,S. aureus; strain S. aureus 253,1 µg/mL
same,MIC,S. aureus; strain S. aureus 267,16 µg/mL
same,MIC,S. aureus; strain S. aureus 272,2 µg/mL
same,MIC,S. aureus; strain S. aureus 279,0.25 µg/mL
same,MIC,S. aureus; strain S. aureus 327,4 µg/mL
same,MIC,S. aureus; strain S. aureus 328,2 µg/mL
same,MIC,S. aureus; strain S. aureus 329,4 µg/mL
same,MIC,S. aureus; strain S. aureus 339,16 µg/mL
same,MIC,S. aureus; strain S. aureus 345,2 µg/mL
same,MIC,S. aureus; strain S. aureus 355,2 µg/mL
same,MIC,S. aureus; strain S. aureus 406,> 16 µg/mL
same,MIC,S. aureus; strain S. aureus 408,2 µg/mL
same,MIC,S. aureus; strain S. aureus 409,1 µg/mL
same,MIC,S. aureus; strain S. aureus 416,2 µg/mL
same,MIC,S. aureus; strain S. aureus 425,> 16 µg/mL
same,MIC,S. aureus; strain S. aureus 436,2 µg/mL
same,MIC,S. aureus; strain S. aureus 475,4 µg/mL
same,MIC,S. xylosus; Staphylococcus xylosus,2 µg/mL
same,MIC,S. xylosus; strain S. xylosus 346,2 µg/mL
same,MIC,[1]; ATCC E. faecalis 29212,16 µg/mL
same,MIC,[1]; E. faecalis 181,> 16 µg/mL
same,MIC,[1]; E. faecalis 186,4 µg/mL
same,MIC,[1]; E. faecalis 187,4 µg/mL
same,MIC,[1]; E. faecalis 193,4 µg/mL
same,MIC,[1]; E. faecalis 194,> 16 µg/mL
same,MIC,[1]; E. faecalis 200,> 16 µg/mL
same,MIC,[1]; E. faecalis 204,4 µg/mL
same,MIC,[1]; E. faecalis 205,> 16 µg/mL
same,MIC,[1]; E. faecalis 210,4 µg/mL
same,MIC,[1]; E. faecalis 227,> 16 µg/mL
same,MIC,[1]; E. faecalis 228,4 µg/mL
same,MIC,[1]; E. faecalis 232,4 µg/mL
same,MIC,[1]; E. faecalis 235,> 16 µg/mL
same,MIC,[1]; E. faecalis 237,4 µg/mL
same,MIC,[1]; E. faecalis 239,> 16 µg/mL
same,MIC,[1]; E. faecalis 242,> 16 µg/mL
same,MIC,[1]; E. faecalis 243,> 16 µg/mL
same,MIC,[1]; E. faecalis 245,> 16 µg/mL
same,MIC,[1]; E. faecalis 249,4 µg/mL
same,MIC,[1]; E. faecalis 250,> 16 µg/mL
same,MIC,[1]; E. faecalis 251,> 16 µg/mL
same,MIC,[1]; E. faecalis 255,4 µg/mL
same,MIC,[1]; E. faecium 8,4 µg/mL
same,MIC,[1]; E. faecium 13,4 µg/mL
same,MIC,[1]; E. faecium 174,> 16 µg/mL
same,MIC,[1]; E. faecium 185,> 16 µg/mL
same,MIC,[1]; E. faecium 188,> 16 µg/mL
same,MIC,[1]; E. faecium 189,8 µg/mL
same,MIC,[1]; E. faecium 190,> 16 µg/mL
same,MIC,[1]; E. faecium 191,> 16 µg/mL
same,MIC,[1]; E. faecium 192,8 µg/mL
same,MIC,[1]; E. faecium 198,> 16 µg/mL
same,MIC,[1]; E. faecium 199,> 16 µg/mL
same,MIC,[1]; E. faecium 201,> 16 µg/mL
same,MIC,[1]; E. faecium 203,8 µg/mL
same,MIC,[1]; E. faecium 207,> 16 µg/mL
same,MIC,[1]; E. faecium 208,4 µg/mL
same,MIC,[1]; E. faecium 209,> 16 µg/mL
same,MIC,[1]; E. faecium 212,> 16 µg/mL
same,MIC,[1]; E. faecium 215,> 16 µg/mL
same,MIC,[1]; E. faecium 217,4 µg/mL
same,MIC,[1]; E. faecium 221,> 16 µg/mL
same,MIC,[1]; E. faecium 222,> 16 µg/mL
same,MIC,[1]; E. faecium 223,> 16 µg/mL
same,MIC,[1]; E. faecium 225,> 16 µg/mL
same,MIC,[1]; E. faecium 229,8 µg/mL
same,MIC,[1]; E. faecium 230,4 µg/mL
same,MIC,[1]; E. faecium 231,> 16 µg/mL
same,MIC,[1]; E. faecium 236,4 µg/mL
same,MIC,[1]; E. faecium 238,> 16 µg/mL
same,MIC,[1]; E. faecium 240,> 16 µg/mL
same,MIC,[1]; E. faecium 248,> 16 µg/mL
same,MIC50,[1]; Enterococcus,> 16 µg/mL
same,MIC90,[1]; Enterococcus,> 16 µg/mL
same,MIC,[1]; [3],> 16 µg/mL
